Test results: patent EP4570798A1, “AROMATIC HETEROCYCLIC CYCLOHEXYL AMINOALKYL PIPERIDINE DERIVATIVE, PREPARATION METHOD AND USE THEREOF” (Jiangsu NHWA Pharmaceutical Co., Ltd, priority 2022, dated 2024)
Where “and” joins values, the source holds several entries; their conditions need not be identical. Identical values can stand only once. Counter-ions that a name gives are not always drawn.

Tests used:
5-HT1A [1] = target: T1, 5-HT1A (Homo sapiens, UniProt P08908); settings: literature value; cited from earlier work
T1 sequence (P08908 1-422): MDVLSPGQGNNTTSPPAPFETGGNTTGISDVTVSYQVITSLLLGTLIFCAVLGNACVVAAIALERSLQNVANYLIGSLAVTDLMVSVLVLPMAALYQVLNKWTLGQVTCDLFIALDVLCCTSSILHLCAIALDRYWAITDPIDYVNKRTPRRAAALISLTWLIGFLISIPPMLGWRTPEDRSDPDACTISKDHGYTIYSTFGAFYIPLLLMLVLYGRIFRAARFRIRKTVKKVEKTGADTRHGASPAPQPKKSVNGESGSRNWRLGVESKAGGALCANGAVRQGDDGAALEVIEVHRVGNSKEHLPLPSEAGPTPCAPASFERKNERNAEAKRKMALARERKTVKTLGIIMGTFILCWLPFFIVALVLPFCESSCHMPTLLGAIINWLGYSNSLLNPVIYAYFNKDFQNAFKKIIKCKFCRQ

hERG potassium channel = hERG potassium channel (Homo sapiens, UniProt Q12809); test: In vitro hERG experiment (whole-cell patch clamp); format: cell-based; settings: for IC50: whole-cell patch clamp, tail current, room temperature; for hERG inhibition: functional activity lower than that of the pharmacodynamic target: hERG IC50 versus activity at pharmacodynamic target
Description: Extracellular fluid: 140 mM NaCl, 3.5 mM KCl, 1 mM MgCl2, 2 mM CaCl2, 10 mM Glucose, 10 mM HEPES, and 1.25 mM NaH2PO4, with the pH adjusted to 7.4 by NaOH.
Under an inverted microscope, recording electrodes were controlled by a glass electrode micromanipulator (micromanipulation) to contact with the cell. A negative voltage was applied to form a GΩ seal. After forming the GΩ seal, a rapid capacitance compensation was given. Under the continuous negative voltage, the cell membrane was ruptured to establish a whole-cell recording mode. In the whole-cell recording mode, a slow capacitance compensation was given, and the values of membrane capacitance and series resistance were recorded.
Voltage stimulation scheme for cellular hERG potassium current: the cell membrane clamping voltage was -80 mV; the voltage was first elevated from -80 mV to +30 mV, held for 2.5 s, and rapidly changed to and held at -50 mV for 4 s, thus exciting the hERG channel tail current. Data were acquired every 10 s. Leak current detection was performed at -50 mV.
The coverslip with seeded cells was placed in the recording chamber of the inverted microscope. Negative control and test compounds flowed through the recording chamber in an ascending order of concentration by gravity perfusion to quickly act on the cells. During the recording, the extracellular fluid was continuously circulated by a vacuum pump. The current detected in a cell in the negative control was used as the background for the cell. Each compound concentration was allowed to act for 5 min or until the current was stabilized. All experiments were performed at room temperature.
The current of each compound concentration was first normalized according to (peak tail current compound)/(peak tail current vehicle), and then the corresponding inhibition rate was calculated according to (1 - (peak tail current compound)/(peak tail current vehicle)). Basic statistics were calculated for each concentration, including mean, standard deviation (SD), standard error (SE), and replicates (n). […] Curve fitting and calculation of IC50 were performed by GraphPad Prism 5.0 software.

5-HT1A [2] = target: T1, 5-HT1A; test: In vitro 5HT1A receptor function experiment (cAMP, forskolin-stimulated HEK293/5HT1A cells); format: cell-based; set-up: expressed in transfected cells; host or cells: HEK293; settings: for EC50: forskolin 1 µM; for Emax: maximum activation rate
Description: 1.1.1 Cell information: HEK293/5HT1A: a stably transfected cell strain HEK293/5HT1A constructed by adopting 5HT1A receptor lentivirus to infect HEK293; growth culture medium: DMEM, 10% FBS, and 0.6 µg/mL puro; and cryopreservation culture medium: 70% culture medium, 20% FBS, and 10% DMSO.

Dopamine D2L receptor = Dopamine D2L receptor (Homo sapiens, UniProt P14416); test: In vitro dopamine D2L receptor function experiment (cAMP, forskolin-stimulated HEK293/D2L cells); settings: for Emax: HEK293, read-out: D2L Emax
Description: • (1) Compound preparation: The test compounds and dopamine were diluted to a concentration of 200 nM for later use. • (2) Experimental buffer preparation: The 5× stimulation buffer was diluted to 1× with ddH2O, and IBMX was added to a final concentration of 0.5 mM. The mixture was mixed well for later use. • (3) The cells were digested with trypsin, and centrifugation was performed after the digestion was terminated. The cell pellet was resuspended in 10 mL of pre-warmed HBSS and centrifuged again. Then, 1 mL of stimulation buffer was added for resuspension, and 20 µL of the cell suspension was taken for cell counting. • (4) An appropriate amount of the cell suspension was taken and diluted to 0.4 × 10^6 cells/mL, and 5 µL of the diluted cell suspension was added to each well of a cell plate and centrifuged at 1000 rpm for 1 min. • (5) Compound dilution and transfer using bravo: The compounds were diluted 4-fold to obtain 8 concentration points in the compound plate. The diluted compounds in the whole plate were then transferred to a 384-well white plate using bravo and centrifuged at 1000 rpm for 1 min. • (6) The experimental plate was sealed and incubated at room temperature for 15 min. • (7) Forskolin, prepared with DMSO, was added at 25.1 nL/well using Tecan D300e, with a mother liquor concentration of 0.2 mM and a final concentration of 0.25 µM, followed by centrifugation at 1000 rpm for 1 min. • (8) The plate was sealed and incubated at room temperature for 45 min. • (9) cAMP standard curve preparation: A 4-fold serial dilution was performed to obtain 8 concentration points from a starting concentration of 2848 nM. Then, 10 µL of each dilution was taken and added to the experimental plate, with a maximum concentration of 712 nM. • (10) 5 µL of cAMP-d2 solution (stock solution diluted at 1:20 with lysis buffer) was added to the experimental plate, and the plate was centrifuged at 1000 rpm for 1 min. • (11) Then, 5 µL of Anti-cAMP-Cryptate solution (stock solution diluted at 1:20 with lysis buffer) was added to the experimental plate, and the plate was centrifuged at 1000 rpm for 1 min. • (12) The experimental plate was incubated at room temperature for 45 min and centrifuged at 1000 rpm for 1 min before reading. • (13) Plate reading was performed using Envision, with excitation light at 320 nm and emission lights at 620 nm and 665 nm. The derived data were analyzed, and the maximum activation rates Emax and EC50 of the compounds were calculated.

Dopamine D3 receptor = target: T2, Dopamine D3 receptor (Homo sapiens, UniProt P35462); test: In vitro dopamine D3 receptor function experiment (CHO-K1/D3/CRE reporter, chemiluminescence); format: cell-based; settings: for EC50: forskolin 0.4 µM; for Emax: maximum activation rate
T2 construct: expressed in transfected cells; host or cells: CHO-K1
Description: 3.1.1 Cell information: CHO-K1/D3/CRE constructed by referring to the method in Example 5 of CN114369578A.
The first day: cell plating • (1) The cultured cells were digested with trypsin, and after the digestion was terminated with culture medium, the cell suspension was transferred to a centrifuge tube and centrifuged at 750 rpm for 5 min. • (2) The supernatant was discarded, and the pellet was resuspended in an appropriate amount of plating medium.
The following day: experimental detection • (1) The test compounds were diluted to 0.2 mM with DMSO, and the reference compound dopamine was diluted to 0.02 mM. • (2) Compound dilution (4-fold dilution at 8 concentration points) was performed using Bravo, with the starting concentrations of the test compounds and the reference compound being 5 µM and 500 nM, respectively. […] The program selected was an ultrasensitive chemiluminescence detection program.

[3] = system: tacrine-induced jaw tremors in rats; test: Tacrine-induced jaw tremor behavior in rats; format: in vivo, Sprague Dawley rats; settings: for Inhibition of tacrine-induced jaw tremors in rats: compared to the model group; for Minimum effective dose: tacrine-induced jaw tremor in rats, compared with rotigotine
Description: Test compounds: The free bases of Examples 28, 32, and 33 in the present invention, which were self-prepared.
Positive control compound: Rotigotine.
Molding drug: Tacrine, SIGMA, A3773-1G.
Vehicle: Normal saline, Cisen Pharmaceutical Co., Ltd., 2111060723.
Sprague Dawley rats, male, 10/group, Shanghai Slac Laboratory Animal Co., Ltd.
Drug preparation: The test compound was taken, added to the vehicle, and subjected to ultrasonication.
Administration route and method: Administration was performed by intraperitoneal injection.
Administration frequency and duration: single administration.
The rats were stratified according to body weight and then randomly divided into a model group, an administration group, and a control group. The rats were acclimatized for three days before the experiment. On the day of the experiment, the vehicle or drug was first injected intraperitoneally, followed by an intraperitoneal injection of tacrine at a dose of 5 mg/kg (body weight) after 60 min. After administration, the rats were placed in a transparent observation box, and the jaw tremor counting was started 10 min later. The continuous counting duration was 5 min, and the jaw tremor frequency in the rats within 5 min was recorded.
The experimental data were expressed as x ± SEM. Inhibition rate (%) = 100% × (jaw tremor frequency in the rats of the model group - jaw tremor frequency in the rats of the administration group)/jaw tremor frequency in the rats of the model group, where *: p < 0.05, **: p < 0.01, and ***: p < 0.001 vs vehicle.

[4] = In vitro liver microsome stability, human; settings: for CLint(liver): Human liver microsomes; for CLint scaled at 1 µM / microsomal CLint at 1 µM / half-life at 1 µM: human, liver microsomes, pH 7.4
Description: (§1) • (1) Buffer preparation: 73.21 g of dipotassium hydrogen phosphate trihydrate and 10.78 g of potassium dihydrogen phosphate were dissolved in 4000 mL of ultrapure water. The pH of the solution was adjusted to within 7.40 ± 0.10 using 10% phosphoric acid or 1 M potassium hydroxide, resulting in a final concentration of 100 mM. • (2) Solution preparation and dilution: Stock solutions of the test compounds at a concentration of 10 mM were prepared in dimethyl sulfoxide (DMSO) and stored at 4 °C, and they were diluted into 100 µM working solutions with pure acetonitrile when used. A stock solution of the control compound testosterone at a concentration of 10 mM was prepared in DMSO and stored at -20 °C, and it was diluted into a 400 µM working solution with pure acetonitrile when used. • (3) Termination solution preparation: The termination solution was acetonitrile containing the internal standard buspirone. The prepared termination solution was stored in a refrigerator at 2-8 °C. • (4) Liver microsome solution preparation: Microsomes from various species (CD-1 mouse, SD rat, and human) were diluted into a 20× working solution using 100 mM potassium phosphate buffer. The final concentration of the microsomes in the reaction system was 0.5 mg/mL. • (5) Reduced nicotinamide adenine dinucleotide phosphate (NADPH) regeneration system preparation: Appropriate amounts of nicotinamide adenine dinucleotide phosphate (NADP), glucose-6-phosphate (G6P), magnesium chloride (MgCl2), and glucose-6-phosphate dehydrogenase (G6PDH) were weighed to prepare stock solutions at concentrations of 65.33 mM, 330 mM, 300 mM, and 250 Units/mL, respectively. The four stock solutions described above were each added to an appropriate amount of buffer, and the mixture was mixed well by gently inverting up and down. […] Several incubation plates were prepared and named T0, T5, T10, T20, T40, T60, PB60, and NCF60, respectively. […] The NCF60 plate was incubated for 60 min with potassium phosphate buffer replacing the NADPH regeneration system solution. The PB60 plate was incubated for 60 min with potassium phosphate buffer replacing the liver microsomes. Samples under all conditions were prepared in triplicate.
(§2) 2 µL of the test compound or control compound and 100 µL of microsome working solution (containing 1 mg/mL liver microsome protein) were added to each of the T0, T5, T10, T20, T40, T60, and NCF60 plates, and 2 µL of the test compound and 100 µL of potassium phosphate buffer were added to the PB60 plate. The plates described above were then pre-incubated in a 37 °C water bath for about 5 min.
(§3) After the pre-incubation, 600 µL of the termination solution was first added to the T0 samples, followed by the addition of 98 µL of NADPH regeneration system working solution. The plate was sealed, shaken, and then allowed to wait for simultaneous processing with subsequent samples. Except for the NCF60 plate where 98 µL of potassium phosphate buffer was added to each sample well, 98 µL of NADPH regeneration system working solution was added to each sample well of the other incubation plates to initiate the reaction. In the reaction system, the final concentrations of the test compound and the control compound were 1 µM and 4 µM, respectively, the concentration of the liver microsomes was 0.5 mg/mL, and the final concentrations of DMSO and acetonitrile were 0.01% (v/v) and 0.99% (v/v), respectively.
(§4) After incubation for an appropriate time (such as 5, 10, 20, 40, and 60 min), 600 µL of the termination solution containing the internal standard was added to each test compound sample and control compound well to terminate the reaction. The plates were sealed, shaken well, and then centrifuged at 4000 ×g and 4 °C for 15 min.

[5] = In vitro liver microsome stability, SD rat; settings: for CLint(liver): SD rat liver microsomes; for CLint scaled at 1 µM / half-life at 1 µM / microsomal CLint at 1 µM: SD, rat, liver microsomes, pH 7.4
Description: as §1, §2, §3, §4

[6] = In vitro liver microsome stability, CD-1 mouse; settings: for CLint scaled at 1 µM / microsomal CLint at 1 µM / half-life at 1 µM: CD-1, mouse, liver microsomes, pH 7.4; for CLint(liver): CD-1 mouse liver microsomes
Description: as §1, §2, §3, §4

[7] = 1 mg/kg, 3 mg/kg, and 10 mg/kg, intraperitoneal, single administration, free base

T2 sequence (P35462 whole entry, species assumed): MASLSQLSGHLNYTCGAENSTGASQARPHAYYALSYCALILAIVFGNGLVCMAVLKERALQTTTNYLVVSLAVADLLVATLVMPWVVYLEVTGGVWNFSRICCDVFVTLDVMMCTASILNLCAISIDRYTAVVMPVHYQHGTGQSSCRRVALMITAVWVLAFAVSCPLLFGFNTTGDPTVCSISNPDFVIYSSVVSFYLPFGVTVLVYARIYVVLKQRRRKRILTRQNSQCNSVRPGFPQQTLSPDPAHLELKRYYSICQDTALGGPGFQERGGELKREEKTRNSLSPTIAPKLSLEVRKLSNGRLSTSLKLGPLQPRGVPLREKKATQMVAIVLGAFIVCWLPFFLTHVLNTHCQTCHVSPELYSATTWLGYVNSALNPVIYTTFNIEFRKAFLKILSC
Sequence of Dopamine D2L receptor (P14416 whole entry): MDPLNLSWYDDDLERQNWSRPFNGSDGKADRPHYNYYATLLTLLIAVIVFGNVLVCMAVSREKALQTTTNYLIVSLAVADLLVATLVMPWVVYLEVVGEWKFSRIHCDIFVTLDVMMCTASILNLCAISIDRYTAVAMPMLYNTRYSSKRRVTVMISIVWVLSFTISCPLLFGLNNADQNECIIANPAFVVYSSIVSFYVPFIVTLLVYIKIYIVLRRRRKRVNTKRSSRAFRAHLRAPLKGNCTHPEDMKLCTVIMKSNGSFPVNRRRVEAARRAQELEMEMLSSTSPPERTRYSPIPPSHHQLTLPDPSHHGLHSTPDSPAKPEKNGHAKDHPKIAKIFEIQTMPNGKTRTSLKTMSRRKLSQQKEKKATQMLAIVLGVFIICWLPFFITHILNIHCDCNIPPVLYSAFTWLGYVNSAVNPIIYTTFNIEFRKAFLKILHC
Sequence of hERG potassium channel (Q12809 whole entry): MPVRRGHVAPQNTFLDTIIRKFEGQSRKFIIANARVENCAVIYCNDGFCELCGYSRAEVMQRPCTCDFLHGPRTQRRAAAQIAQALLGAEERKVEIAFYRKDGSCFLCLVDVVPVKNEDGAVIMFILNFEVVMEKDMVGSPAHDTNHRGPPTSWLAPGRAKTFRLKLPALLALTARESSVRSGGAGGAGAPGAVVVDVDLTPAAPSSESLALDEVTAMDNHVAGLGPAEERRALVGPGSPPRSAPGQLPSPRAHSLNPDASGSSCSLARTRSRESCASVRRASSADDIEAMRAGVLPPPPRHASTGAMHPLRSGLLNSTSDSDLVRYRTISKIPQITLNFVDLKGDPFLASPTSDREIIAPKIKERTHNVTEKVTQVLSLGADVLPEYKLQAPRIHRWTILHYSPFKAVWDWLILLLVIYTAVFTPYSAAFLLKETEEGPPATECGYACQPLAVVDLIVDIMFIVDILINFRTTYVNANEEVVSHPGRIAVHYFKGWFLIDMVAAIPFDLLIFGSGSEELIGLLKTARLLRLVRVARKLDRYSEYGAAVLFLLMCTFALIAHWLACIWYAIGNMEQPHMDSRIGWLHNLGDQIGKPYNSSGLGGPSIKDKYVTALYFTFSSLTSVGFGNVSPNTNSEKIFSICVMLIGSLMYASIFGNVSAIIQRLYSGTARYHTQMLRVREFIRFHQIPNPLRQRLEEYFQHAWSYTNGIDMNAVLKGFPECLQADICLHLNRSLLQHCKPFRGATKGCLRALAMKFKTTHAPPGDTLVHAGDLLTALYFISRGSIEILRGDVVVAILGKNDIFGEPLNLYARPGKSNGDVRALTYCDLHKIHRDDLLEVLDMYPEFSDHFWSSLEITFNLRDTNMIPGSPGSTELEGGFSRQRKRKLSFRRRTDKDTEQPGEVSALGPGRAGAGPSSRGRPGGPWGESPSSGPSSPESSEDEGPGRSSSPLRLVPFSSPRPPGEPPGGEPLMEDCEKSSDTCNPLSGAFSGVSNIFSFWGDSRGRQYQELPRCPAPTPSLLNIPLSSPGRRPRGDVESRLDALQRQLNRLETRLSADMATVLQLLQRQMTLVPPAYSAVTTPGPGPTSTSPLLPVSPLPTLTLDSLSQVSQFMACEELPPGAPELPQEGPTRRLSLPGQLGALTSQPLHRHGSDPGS

| SMILES | EC50 (5-HT1A [2]) [nM] | Emax (5-HT1A [2]) [%] | EC50 (Dopamine D2L receptor) [nM] | Emax (Dopamine D2L receptor) [%] | EC50 (Dopamine D3 receptor) [nM] | Emax (Dopamine D3 receptor) [%] | CLint(liver) [4] [mL/min/K g] | CLint scaled at 1 µM [4] [mL/min/kg] | microsomal CLint at 1 µM [4] [µL/min/mg] | CLint(liver) [5] [mL/min/K g] | CLint scaled at 1 µM [5] [mL/min/kg] | half-life at 1 µM [5] [h] | microsomal CLint at 1 µM [5] [µL/min/mg] | CLint scaled at 1 µM [6] [mL/min/kg] | microsomal CLint at 1 µM [6] [µL/min/mg] | CLint(liver) [6] [mL/min/K g] | IC50 (hERG potassium channel) | Inhibition of tacrine-induced jaw tremors in rats [3, 7] | Minimum effective dose [3] | other results |
| --- | --- | --- | --- | --- | --- | --- | --- | --- | --- | --- | --- | --- | --- | --- | --- | --- | --- | --- | --- | --- |
| Cc1ccc(CNCC2(F)CCN(C(=O)c3ccc(F)c(Cl)c3)CC2)nc1 [NLX-112] |  |  |  |  |  |  |  |  |  |  |  |  |  |  |  |  |  |  |  | 5-HT1A Emax (5-HT1A [1]): 84% |
| CCCN(CC1CCN(C(=O)OC)CC1)[C@@H]1CCc2nc(N)sc2C1 (stereo in doubt) [Comparative Example 3, Methyl (R)-4-(((2-amino-4,5,6,7-tetrahydrobenzo[d]thiazol-6-yl)(propyl)amino)methyl)piperidine-1-carboxylate hydrochloride, reference compound] | 203 | 97 | 0.95 | 112 |  |  |  |  |  |  |  |  |  |  |  |  | 5100 nM |  |  |  |
| CCCN(CCN1CCN(c2cccc(Cl)c2Cl)CC1)[C@H]1CCc2nc(N)sc2C1 [Comparative Example 1, (S)-N^6-(2-(4-(2,3-Dichlorophenyl)piperazin-1-yl)ethyl)-N^6-propyl-4,5,6,7-tetrahydrobenzo[d]thiazole-2,6-diamine hydrochloride, reference compound] | 203 | 99.1 | 0.25 | 101 |  |  |  |  |  |  |  |  |  |  |  |  |  |  |  |  |
| CCCN(CC1CCN(C(=O)OC)CC1)C1CCc2nc(N)sc2C1 (stereo not shown) [Comparative Example 2, Methyl 4-(((2-amino-4,5,6,7-tetrahydrobenzo[d]thiazol-6-yl)(propyl)amino)methyl)piperidine-1-carboxylate hydrochloride, reference compound] | 247 | 95.4 | 1.68 | 112 |  |  |  |  |  |  |  |  |  |  |  |  | 4700 nM |  |  |  |
| CCCN(CCc1cccs1)[C@H]1CCc2c(O)cccc2C1 [rotigotine, Rotigotine, reference compound] |  |  |  |  |  |  |  |  |  |  |  |  |  |  |  |  |  |  |  | Inhibition of tacrine-induced jaw tremors in rats ([3]; 10 mg/kg, positive control): significantly inhibited |
| CCCN(CC1CCN(c2cccc3sccc23)CC1)[C@H]1CCc2nc(N)sc2C1 [Example 9, (S)-N^6-((1-(Benzo[b]thiophen-4-yl)piperidin-4-yl)methyl)-N^6-propyl-4,5,6,7-tetrahydrobenzo[d]thiazole-2,6-diamine] | 30.2 | 101 |  |  | 2.1 | 111 | 33.4 | 8.9 to 48.3 | 37.1 | 89.1 | 23.7 to 129 | 0.467 | 49.5 | 38.6 to 210 | 49.1 | 194.5 |  |  |  | half-life at 1 µM [4]: 0.623 h; half-life at 1 µM [6]: 0.47 h |

The next lines start with results.

| EC50 (5-HT1A [2]) [nM] | Emax (5-HT1A [2]) [%] | EC50 (Dopamine D2L receptor) [nM] | Emax (Dopamine D2L receptor) [%] | EC50 (Dopamine D3 receptor) [nM] | Emax (Dopamine D3 receptor) [%] | CLint(liver) [4] [mL/min/K g] | CLint scaled at 1 µM [4] [mL/min/kg] | microsomal CLint at 1 µM [4] [µL/min/mg] | CLint(liver) [5] [mL/min/K g] | CLint scaled at 1 µM [5] [mL/min/kg] | half-life at 1 µM [5] [h] | microsomal CLint at 1 µM [5] [µL/min/mg] | CLint scaled at 1 µM [6] [mL/min/kg] | microsomal CLint at 1 µM [6] [µL/min/mg] | CLint(liver) [6] [mL/min/K g] | SMILES | IC50 (hERG potassium channel) | Inhibition of tacrine-induced jaw tremors in rats [3, 7] | Minimum effective dose [3] | other results |
| --- | --- | --- | --- | --- | --- | --- | --- | --- | --- | --- | --- | --- | --- | --- | --- | --- | --- | --- | --- | --- |
| 25.7 | 102 |  |  | 1.3 | 120 | 10.3 | 8.9 to 48.3 | 11.5 | 38.5 | 23.7 to 129 | 1.08 | 21.4 | 38.6 to 210 | 11.5 | 45.5 | CCCN(CC1CCN(C(=O)N(C)C)CC1)[C@H]1CCc2nc(N)sc2C1 [Example 32, (S)-4-(((2-Amino-4,5,6,7-tetrahydrobenzo[d]thiazol-6-yl)(propyl)amino)methyl)-N,N-dimethylpiperidine-1-carboxamide] | 20000 nM and 17800 nM | significantly inhibited | lower than that of the positive control drug | hERG inhibition: functional activity lower than that of the pharmacodynamic target (hERG potassium channel): ≥ 1000 fold |
| 162 | 92.7 |  |  | 1.1 | 107 | 2.6 | < 8.9 | 2.9 | 27.3 | 23.7 to 129 | 1.52 | 15.2 | 38.6 to 210 | 12.6 | 50.0 | CCCN(CC1CCN(C(=O)N2CCOCC2)CC1)[C@H]1CCc2nc(N)sc2C1 [Example 33, (S)-(4-(((2-Amino-4,5,6,7-tetrahydrobenzo[d]thiazol-6-yl)(propyl)amino)methyl)piperidin-1-yl)(morpholino)methanone] | 20000 nM and 20200 nM | significantly inhibited | lower than that of the positive control drug | hERG inhibition: functional activity lower than that of the pharmacodynamic target (hERG potassium channel): ≥ 1000 fold |
| 122 | 103 |  |  |  |  | 1.0 | < 8.9 | 1.1 | 2.7 | < 23.7 | 14.8 | 2.8 | < 38.6 | 13.9 | 13.4 | CCCN(CC1CCN(C(=O)c2cnn(C)c2)CC1)[C@H]1CCc2nc(N)sc2C1 [Example 28, (S)-(4-(((2-Amino-4,5,6,7-tetrahydrobenzo[d]thiazol-6-yl)(propyl)amino)methyl)piperidin-1-yl)(1-methyl-1H-pyrazol-4-yl)methanone] | 20000 nM and 23300 nM | significantly inhibited | lower than that of the positive control drug | half-life at 1 µM [4]: 19.7 h; half-life at 1 µM [6]: 6.57 h |
